Each structure is given as a SMILES string.

Assay [1] deals with T1, PGAM-Chk1 binding (Homo sapiens, UniProt O14757+P18669).
T1 construct: expressed in transfected cells
Briefly: Nano-Bit PGAM-Chk1 binding in young and etoposide-induced senescent IMR90 cells. The class given is cell-based. To be noted: etoposide-induced senescent IMR90 cells; 20 μM or 40 μM for 48 hours. Here is the method:
In addition, PGAM and Chk1 kinase genes tagged with Nano-Bit tags were introduced into IMR90 cells to prepare a cell line capable of stable expression Young cells (within 1 month of continuous culture) of the IMR90 cells were treated with 100 uM etoposide for 48 hours to induce cellular senescence.

Another assay deals with BIM gene. Briefly: BIM gene expression in Ras-induced senescent IMR90 cells. It is filed as cell-based, human. The note with it: senescent (OIS) IMR90 cells; 48 hours. On the procedure: An oncogenic Ras was introduced into young cells (within 1 month of continuous culture) of IMR90 cells to induce senescent cells (OIS).
An oncogenic Ras was introduced into young cells (within 1 month of continuous culture) of IMR90 cells to induce senescent cells (OIS). The senescent cells were transfected with an HIF-2α-specific siRNA (SEQ ID NO: 9) to knock down HIF-2α. After that, the expression of the BIM gene, which is an apoptosis-inducing gene, was analyzed (FIG. 26).

The next assay deals with HIF-2α. Briefly: HIF-2α protein (Western blot) and mRNA expression in IMR90 cells. It is filed as cell-based, human. The source says: As a result, it was observed that the HIF-2α protein decreased in the nutlin 3b-treated group and the BI-D1870-treated group (upper diagram and lower diagram in FIG. 22).
An oncogenic Ras was introduced into young cells (within 1 month of continuous culture) of IMR90 cells to induce senescent cells (OIS). […] It is known that ubiquitination is induced by phosphorylation in the vicinity of a ubiquitination site (Hagai et al., 2012). The consensus sequences (K/R-K/R-x-x-S/T) for phosphorylation by Chk1 located at the N-terminus of HIF-2α were conserved, and these were named Motif1 (including Ser12 residues) and Motif2 (including Ser19 residues) (FIG. 40, SEQ ID NOs: 77 to 81).

The test system of another assay is glycolytic metabolism. Briefly: Glycolytic metabolism (glucose consumption, lactate production) in etoposide-induced senescent IMR90 cells. It is filed as cell-based, human. The note with it: 20 μM or 40 μM for 48 hours. Here is the method: Next, young cells (within 1 month of continuous culture) of the IMR90 cells were treated with 100 μM etoposide for 48 hours to acquire senescent cells. […] After the nutlin treatment, the medium was collected, and glucose consumption was evaluated and lactate production was measured. The lactate level is calculated as a value (μmol/mg/h) obtained by measuring the amount of lactate secreted into the medium per hour (μmol/h) and correcting the same by the total cell protein (mg) and is expressed as a value relative to the actual value on day 0. The glucose consumption is calculated as a value (μmol/mg/h) obtained by measuring the amount of glucose decreased from the medium per hour (μmol/h) and correcting the same by the total cell protein (mg) and is expressed as a value relative to the actual value on day 0. Glucose and lactate were measured by using a Glucose assay kit (BioVision) (upper diagram in FIG. 8) and a Lactate assay kit (BioVision) (lower diagram in FIG. 8), respectively.

The test system of another assay is aged C57BL/6 mice. Put plainly: Nutlin 3b administration to aged mice for 2 months, RT-PCR of senescence and inflammation markers. It is filed as in vivo, mouse. To be noted: 90 weeks, 11.63 mg/kg intraperitoneal once a week for 2 months. On the procedure:
Specifically, 16 aged C57BL/6 mice at 90 weeks of age were provided. The mice were divided into two groups (control: 8 mice, agent group: 8 mice), and intraperitoneal injection administration once a week was continued for 2 months. […] One week after the end of the last administration, all mice were dissected, and RNA was extracted from each organ. Senescence markers and inflammation markers were evaluated by RT-PCR.

The subject of assay [2] is Twenty-month-old C57BL/6 mice. Put plainly: Nutlin 3b administration to aged mice for 3 months. The class given is in vivo, mouse. The text has this: The vehicle group was given a solvent alone on the same schedule.
Assay [3] deals with T1, PGAM-Chk1 binding. Briefly: Nano-Bit PGAM-Chk1 binding in cancer cell line H1299. The note with it: H1299 cells; 40 μM for 12, 24, and 48 hours. It is filed as cell-based. The source says: PGAM and Chk1 kinase genes tagged with Nano-Bit tags were introduced into the cancer cell line H1299 to prepare a cell line capable of stable expression. […] The treated cells were used to measure intracellular luciferase luminescence signals by Nano-Bit for each.

Another assay has as its system caspase-3. Put plainly: Apoptosis by Western blotting of fragmented caspase-3 in young and senescent IMR90 cells. It is filed as cell-based, human. The note with it: different concentrations for 72 hours. The source says:
Ras gene with oncogenic mutation was introduced into young cells (within 1 month of continuous culture) of IMR90 cells by retroviral infection to acquire stress senescent cells.
(A western blot detects proteins with antibodies after separation by electrophoresis.)

Setting [4] is: 11.62 mg/kg intraperitoneal once a week for 3 months.

T1 sequence (P18669 whole entry): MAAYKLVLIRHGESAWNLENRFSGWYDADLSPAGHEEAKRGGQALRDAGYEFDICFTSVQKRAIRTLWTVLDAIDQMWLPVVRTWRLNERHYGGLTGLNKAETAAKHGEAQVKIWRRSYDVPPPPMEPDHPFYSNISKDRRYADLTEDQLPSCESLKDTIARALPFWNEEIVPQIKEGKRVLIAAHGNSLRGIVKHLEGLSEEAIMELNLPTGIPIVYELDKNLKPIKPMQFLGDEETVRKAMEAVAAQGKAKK
T1 sequence (O14757 whole entry): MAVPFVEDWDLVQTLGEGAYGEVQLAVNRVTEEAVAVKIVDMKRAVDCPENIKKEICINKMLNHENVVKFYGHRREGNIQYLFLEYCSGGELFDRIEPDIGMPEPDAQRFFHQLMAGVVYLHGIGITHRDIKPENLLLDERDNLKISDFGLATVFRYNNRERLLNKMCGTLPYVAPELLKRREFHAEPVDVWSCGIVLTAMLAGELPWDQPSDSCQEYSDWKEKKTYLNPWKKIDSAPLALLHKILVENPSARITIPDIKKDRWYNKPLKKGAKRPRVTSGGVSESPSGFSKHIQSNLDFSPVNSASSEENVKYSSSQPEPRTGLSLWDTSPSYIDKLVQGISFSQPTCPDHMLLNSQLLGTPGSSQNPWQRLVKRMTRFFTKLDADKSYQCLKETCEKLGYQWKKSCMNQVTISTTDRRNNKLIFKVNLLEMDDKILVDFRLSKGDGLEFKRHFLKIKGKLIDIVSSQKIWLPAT

For `COc1ccc(C2=N[C@H](c3ccc(Cl)cc3)[C@H](c3ccc(Cl)cc3)N2C(=O)N2CCNC(=O)C2)c(OC(C)C)c1` [nutlin 3b], the “potentiation of PGAM-Chk1 binding (intracellular luminescence signals of Nano-Bit)” value at PGAM-Chk1 binding [1] is given as “suppressed by the nutlin 3b treatment in a dose-dependent manner”. The “expression of the apoptosis-inducing gene BIM” value in the assay with BIM gene is “increased”. Further, in the assay with HIF-2α (senescent (OIS) IMR90 cells), the HIF-2α protein expression entry was “suppressed” and the “influence on HIF-2α mRNA” value is reported as “relatively small”. Also, the HIF-2α protein entry in the assay with HIF-2α (young and senescent cells, different concentrations for 96 hours) was “decreased”. In the assay on glycolytic metabolism, the glucose consumption entry is “suppressed in a dose-dependent manner” and the lactate production result was “suppressed in a dose-dependent manner”. Moreover, in the assay with aged C57BL/6 mice, the “inflammatory markers (RT-PCR, organs)” value is listed as “reduced” and the “senescence markers (RT-PCR, organs)” value was “reduced”. For the same molecule, in assay [2] (setting [4]), the “lactate level (plasma)” value is given as “improved”, the “liver function marker plasma albumin level” value was “improved”, the “muscle strength (wire hang test)” value is given as “improved” and the “renal function marker plasma BUN” value is “improved”. Besides, the “renal function marker plasma creatinine” value in assay [2] (setting [4]) is reported as “improved”. Moreover, in assay [2] (11.62 mg/kg once a week for 3 months), the “degree of cellular senescence in adipose tissue (SA ß-Gal staining)” value is on record as “improved”. Moreover, the “p21-positive cells in the liver” value in assay [2] (histochemical analysis, 11.62 mg/kg once a week for 3 months) is listed as “significantly decreased”. For the same molecule, the “SASP factors (IL6, CXCL1, TNFα, and CCL5)” value in assay [2] (liver mRNA, 11.62 mg/kg once a week for 3 months) is recorded as “reductions”. Besides, the “F4/F80-positive cells (macrophage infiltration)” value in assay [2] (liver, 11.62 mg/kg once a week for 3 months) was “reduced”. Further, at PGAM-Chk1 binding [3], the “luciferase luminescence signal by Nano-Bit (PGAM-Chk1 binding)” value is listed as “treatment time-dependent decrease”. Besides, the caspase-3 fragmentation entry in the assay with caspase-3 (Ras-induced senescent IMR90 cells) was “dose-dependent fragmentation of caspase 3”. For the same molecule, in the assay on caspase-3 (young IMR90 cells), the caspase-3 fragmentation entry was “did not cause caspase-3 fragmentation”.
